Literature values in patent publication US20050203062A1, “Use of tagatose in laxatives” (Spherix Incorporated, priority 2002, published 2005).

Experiments:
[1] = amounts approaching 30 or 40 grams per day
Type 2 diabetes = conditions: clinical trials

Question: Which results are given for O=C(CO)[C@@H](O)[C@@H](O)[C@H](O)CO [tagatose, D-tagatose]?
Answer: laxation effect [1]: known to have a Taxation effect; treatment of Type 2 diabetes (Type 2 diabetes): effective treatment for Type 2 diabetes; rise in blood glucose (blood glucose; after tagatose itself): does not produce a rise in blood glucose; rise in blood glucose from subsequent intake of glucose-producing foods (blood glucose; subsequent intake of glucose-producing foods): blunts the rise in blood glucose
